Reference: patent US8969554B2, “6-acyl-1,2,4-triazine-3,5-dione derivative and herbicides” (Kumiai Chemical Industry Co., Ltd., priority 2010, dated 2015)

Tests used:
Type in all cases: in vivo
Echinochloa oryzicola = assay: Herbicidal activity by paddy field soil treatment (Test Example 1); design: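 index 0 to 10 in 10% steps of herbicidal effect with 10 meaning complete death and 0 below 10%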; conditions: 1000 g of effective component per hectare, evaluated on day 21 after the treatment, criteria of Table 72
Outline: (§1)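 Pre-emergence water-surface application one day after sowing into flooded (3 cm) paddy soil, dose 1000 g effective component per hectare from a diluted wettable powder. Plants kept in greenhouse and rated for herbicidal effect 21 days post-treatment.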

Monochoria vaginalis = assay: as above; design: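 index 0 to 10 in 10% steps of herbicidal effect with 10 meaning complete death and 0 below 10%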; conditions: 1000 g of effective component per hectare, evaluated on day 21 after the treatment, criteria of Table 72
Outline: as §1

Scirpus juncoides Rocxb. = assay: as above; design: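 index 0 to 10 in 10% steps of herbicidal effect with 10 meaning complete death and 0 below 10%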; conditions: applied on water surface, 1000 g of effective component per hectare, day 21 after the treatment
Outline: as §1

A. retroflexus [1] = assay: Herbicidal activity by field soil treatment (Test example 2); design: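 index 0 to 10 in 10% steps of herbicidal effect with 10 meaning complete death and 0 below 10%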; conditions: 1000 g effective component per hectare, day 21 after the treatment
Outline: (§2)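 Pre-emergence soil spray: wettable-powder formulation in water at 1000 g active ingredient per hectare (1000 L/ha) onto freshly sown, soil-covered seeds in field soil. Scoring of herbicidal effect by defined criteria 21 days post-treatment, plants kept in a greenhouse.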

Echinochloa crus-galli [2] = assay: as above; design: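 index 0 to 10 in 10% steps of herbicidal effect with 10 meaning complete death and 0 below 10%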; conditions: 1000 g effective component per hectare, day 21 after the treatment
Outline: as §2

Indian millet [3] = assay: as above; design: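 index 0 to 10 in 10% steps of herbicidal effect with 10 meaning complete death and 0 below 10%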; conditions: 1000 g effective component per hectare, day 21 after the treatment
Outline: as §2

foxtail = assay: as above; conditions: 1000 g effective component per hectare, day 21 after the treatment;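 further: index 0 to 10 in 10% steps of herbicidal effect with 10 meaning complete death and 0 below 10%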
Outline: as §2

A. retroflexus [4] = assay: Herbicidal activity by field foliage treatment (Test example 3); design: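 index 0 to 10 in 10% steps of herbicidal effect with 10 meaning complete death and 0 below 10%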; conditions: 1000 g effective component per hectare, day 14 after the treatment
Outline: (§3)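 Scoring of herbicidal effect by set criteria took place 14 days post-spray. Plants had been raised 2 weeks in field soil under glass before whole-plant foliar application of diluted wettable powder (1000 g active component/ha, spray volume 1000 L/ha).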

Indian millet [5] = assay: as above; design: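 index 0 to 10 in 10% steps of herbicidal effect with 10 meaning complete death and 0 below 10%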; conditions: 1000 g effective component per hectare, day 14 after the treatment
Outline: as §3

Echinochloa crus-galli [6] = assay: as above; design: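 index 0 to 10 in 10% steps of herbicidal effect with 10 meaning complete death and 0 below 10%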; conditions: 1000 g effective component per hectare, day 14 after the treatment
Outline: (§4)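 Herbicidal effect was rated on day 14 following a foliar spray of 1000 g active ingredient per hectare, applied as water-diluted wettable powder at 1000 L/ha. Plants had been raised for 2 weeks in field soil under greenhouse conditions before spraying.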

Setaria viridis = assay: as above; conditions: 1000 g effective component per hectare, day 14 after the treatment;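 further: index 0 to 10 in 10% steps of herbicidal effect with 10 meaning complete death and 0 below 10%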
Outline: as §4

| SMILES | Herbicidal effects index number, Echinochloa oryzicola (Echinochloa oryzicola) | Herbicidal effects index number, Monochoria vaginalis (Monochoria vaginalis) | herbicidal effect index, S. juncoides Rocxb. (Scirpus juncoides Rocxb.) | herbicidal effect index, Amaranthus retroflexus (A. retroflexus [1]) | herbicidal effect index, Echinochloa crus-galli (Echinochloa crus-galli [2]) | herbicidal effect index, Abutilon theophrasti (Indian millet [3]) | herbicidal effect index, Setaria viridis (foxtail) | herbicidal effect index, Amaranthus retroflexus (A. retroflexus [4]) | herbicidal effect index, Abutilon theophrasti (Indian millet [5]) | herbicidal effect index, Echinochloa crus-galli (Echinochloa crus-galli [6]) | herbicidal effect index, Setaria viridis (Setaria viridis) |
| --- | --- | --- | --- | --- | --- | --- | --- | --- | --- | --- | --- |
| COc1cc(-n2c(=O)c(C(=O)C3=C(O)CCCC3=O)nn(C)c2=O)cc(OC)c1OC [I-169] | 10 | 10 | 10 | 10 | 10 | 9 | 10 | 8 | 9 | 9 | 9 |
| Cn1nc(C(=O)C2=C(O)CCCC2=O)c(=O)n(-c2ccccn2)c1=O [I-179] | 10 | 10 | 10 | 9 | 10 | 10 | 10 | 10 | 10 | 10 | 10 |
| Cn1nc(C(=O)C2=C(O)CCCC2=O)c(=O)n(N2CCOCC2)c1=O [I-202] | 10 | 10 | 10 | 10 | 10 | 9 | 9 | 9 | 9 | 9 | 9 |
| Cn1nc(C(=O)C2=C(O)CCCC2=O)c(=O)n(C)c1=S [I-265] | 10 | 10 | 10 | 10 | 10 | 10 | 10 | 10 | 9 | 8 | 9 |
| Cn1nc(C(=O)C2=C(O)CCCC2=O)c(=O)n(-c2ccccc2-c2ccccc2)c1=O [I-269] | 8 | 8 | 10 | 10 | 8 | 9 | 9 | 10 | 9 | 10 | 8 |
| Cn1nc(C(=O)C2=C(O)CCCC2=O)c(=O)n(-c2ccc(-c3ccccc3)cc2)c1=O [I-271] | 8 | 8 | 10 | 10 | 10 | 10 | 10 | 10 | 9 | 10 | 7 |
| Cn1nc(C(=O)C2=C(O)CCCC2=O)c(=O)n(-c2cccnc2Cl)c1=O [I-276] | 8 | 8 | 9 | 10 | 9 | 10 | 9 | 10 | 9 | 10 | 10 |
| Cc1ncccc1-n1c(=O)c(C(=O)C2=C(O)CCCC2=O)nn(C)c1=O [I-277] | 9 | 9 | 10 | 8 | 8 | 7 | 8 | 10 | 9 | 10 | 9 |
| Cn1nc(C(=O)C2=C(O)CCCC2=O)c(=O)n(-c2ccnc(Br)c2)c1=O [I-281] | 10 | 10 | 10 | 10 | 9 | 9 | 9 | 9 | 9 | 9 | 7 |
| Cc1cc(Br)ccc1-n1c(=O)c(C(=O)C2=C(O)CCCC2=O)nn(C)c1=O [I-282] | 10 | 10 | 10 | 10 | 10 | 9 | 10 | 8 | 9 | 8 | 7 |
| Cc1ccc(C(F)(F)F)cc1-n1c(=O)c(C(=O)C2=C(O)CCCC2=O)nn(C)c1=O [I-284] | 10 | 10 | 10 | 10 | 10 | 9 | 8 | 9 | 8 | 9 | 7 |
| Cc1cccc(OC(F)(F)F)c1-n1c(=O)c(C(=O)C2=C(O)CCCC2=O)nn(C)c1=O [I-285] | 10 | 10 | 10 | 10 | 10 | 10 | 10 | 8 | 7 | 9 | 9 |
| CC(C)c1ccccc1-n1c(=O)c(C(=O)C2=C(O)CCCC2=O)nn(C)c1=O [I-286] | 10 | 10 | 9 | 10 | 10 | 9 | 9 | 10 | 9 | 10 | 10 |
| CCc1ccccc1-n1c(=O)c(C(=O)C2=C(O)CCCC2=O)nn(C)c1=O [I-288] | 10 | 10 | 10 | 10 | 10 | 9 | 9 | 10 | 10 | 9 | 10 |
| Cc1ccc(-n2c(=O)c(C(=O)C3=C(O)CCCC3=O)nn(C)c2=O)cn1 [I-289] | 10 | 10 | 10 | 10 | 9 | 9 | 7 | 10 | 9 | 9 | 7 |
